{
  "source": "patent US10561665B2",
  "about": "“Treatment of autism” (priority 2014, dated 2020)",
  "key": {"[1]": {"test": "liver microsome stability", "assay_type": "in vitro ADME, Mouse", "conditions": "for half-life at 5 μM: mouse, liver microsomes"}, "cholinesterase [2]": {"test_system": "cholinesterase", "test": "cholinesterase inhibition (IC50)", "assay_type": "biochemical"}, "Mecp2 mice [3]": {"test_system": "Mecp2 mice", "test": "locomotor activity (photobeam) in Mecp2 mutant mice and controls", "assay_type": "in vivo", "conditions": "0.1 to 20 mg/kg", "experimental": "Locomotor activity was monitored using methods described previously (Shaevitz et al. 2013 Genes Brain Behav, 12(7): 732-40. doi: 10.1111/gbb.12070). Mecp2 mutant males (between 1 and 3 months old) and females (between 3 and 6 months old) and age-matched controls were monitored for one-hour prior to and 12 hours after drug (or vehicle: 20% DMSO in saline) administration (one set of mice received IP injections and one set of mice received oral gavage) in doses that ranged from 0.1-20 mg/kg). Activity was measured across the 12-h dark cycle using a photobeam activity system (San Diego instruments, San Diego, Calif., USA). Mice were placed individually into a cage (47×25×21 cm) inside a rectangular arena equipped with a 3×8 array of photobeams. The average number of ambulatory (two adjacent) and fine (repeated single) beam breaks per hour over the 12 h was compared. [N=2 mice/group at each dose and each administration route; for the vehicle controls, N=6 WT/group; N=6 Mecp2/group]. Data were analyzed using repeated measures analysis of variance."}, "mice": {"test_system": "mice", "conditions": "cited from earlier work; for adverse effects at very high doses: 50-100 mg/kg"}, "α7 nicotinic receptors": {"biological_target": "T1, α7 nicotinic receptors (Rattus norvegicus, UniProt Q05941)", "T1 construct": "Primary cultured rat neurons can be depolarized by the application of 1.5 mM choline; endogenous in cells; host or cells: primary cultured rat neurons", "T1 sequence (Q05941 23-502)": "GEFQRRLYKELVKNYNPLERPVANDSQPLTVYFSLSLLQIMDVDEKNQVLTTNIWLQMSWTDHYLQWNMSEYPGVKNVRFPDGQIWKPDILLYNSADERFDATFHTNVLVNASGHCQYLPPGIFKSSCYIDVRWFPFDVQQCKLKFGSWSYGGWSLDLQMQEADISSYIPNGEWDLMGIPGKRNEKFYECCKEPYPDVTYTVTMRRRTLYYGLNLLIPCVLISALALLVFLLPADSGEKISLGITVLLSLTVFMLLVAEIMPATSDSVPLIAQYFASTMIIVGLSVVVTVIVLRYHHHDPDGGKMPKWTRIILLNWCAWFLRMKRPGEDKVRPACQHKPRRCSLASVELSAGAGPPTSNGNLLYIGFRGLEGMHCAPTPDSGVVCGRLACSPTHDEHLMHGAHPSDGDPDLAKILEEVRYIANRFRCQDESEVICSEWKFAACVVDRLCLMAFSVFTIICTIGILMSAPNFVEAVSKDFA", "conditions": "cited from earlier work"}, "[4]": {"test": "stability in mouse plasma"}, "[5]": {"test_system": "mice with lesions of the nucleus basalis magnocellularis", "conditions": "cited from earlier work; for increase of time remaining in the lighted compartment versus saline: nBM lesioned mice, compound given during training, optimal performance; for best dose for memory enhancement: passive avoidance, 24 hour retention"}, "female Mecp2 mice": {"test_system": "female Mecp2 mice", "test": "novel object recognition (NOR) task in female Mecp2 mice", "assay_type": "in vivo", "conditions": "Mecp2 females", "experimental": "Cognitive function was assessed using the novel object recognition (NOR) task using methods previously described (Schaevitz et al. 2013). […] Novel object memory was assessed during three sessions. This task relies on the innate tendency of a mouse to explore unfamiliar objects vs. familiar objects. Testing was performed in an open-field arena. Twenty-four hours prior to training, mice were habituated to the arena for 10 min. Ninety minutes before training, the mice were administered drug or vehicle (0.1, 0.5, 1.0, 2.5 and 5.0 mg/kg IP). During training, mice were given 10 min to explore two identical Lego objects (A+A). Short- and long-term object memory were assessed in two subsequent sessions ([…]) during which mice were given 10 min to explore the familiar (A) or a novel (B or C) object. The duration of exploration (defined as the mouse's snout or forelimbs physically touching or approaching within 1 cm of an object) of familiar and novel objects was measured. The amount of time spent exploring the novel object over the total time exploring both novel and familiar objects in each session was used to measure object memory. [N=6/dose of 0.1, 0.5 and 1.0; N=1/dose of 2.5 and 5.0 mg/kg; for vehicle N=6 WT and N=6 Mecp2 mice.]\nFor the novel objection recognition task data, we created a matrix of all wildtype and Mecp2 females who were administered the vehicle and a second matrix comparing Mecp2 females with and without the drug (all doses combined)."}, "CaCo-2 cells": {"test_system": "CaCo-2 cells", "test": "in vitro permeability of a layer of CaCo-2 cells", "assay_type": "in vitro ADME, human", "conditions": "predicted from CaCo-2 permeability"}, "cholinesterase [6]": {"biological_target": "cholinesterase", "conditions": "cholinesterase inhibitor (Han et al 1991); cited from earlier work"}, "Mecp2 mice [7]": {"test_system": "Mecp2 mice", "test": "respiratory function (plethysmograph) in Mecp2 mutant mice and controls", "assay_type": "in vivo", "conditions": "IP or gavage, 0.1 to 20 mg/kg", "experimental": "Respiratory function was monitored in a plethysmograph (EMKA Technologies) for 30 minutes prior to and 1 hour after drug administration (one set of mice received IP injections and one set of mice received oral gavage). [N=2 mice/group at each dose and each administration route; for the vehicle controls, N=6 WT/group; N=6 Mecp2/group]. Data were analyzed using repeated measures analysis of variance."}, "[8]": {"conditions": "human patients; cited from earlier work"}, "[9]": {"test_system": "mild cognitive impairment population", "conditions": "patients with mild cognitive impairment; cited from earlier work"}, "[10]": {"test_system": "patient with 15q13.3 deletion syndrome", "conditions": "one patient; cited from earlier work"}, "ASD patients": {"test_system": "ASD patients", "conditions": "case reports, open-label and poorly documented studies; cited from earlier work"}, "[11]": {"conditions": "5.0 μM, Mouse, read-out: NADPH-dependent T1/2 (half-life)"}, "[12]": {"conditions": "5.0 μM, Mouse, read-out: NADPH-free T1/2 (half-life)"}, "[13]": {"conditions": "all doses combined (0.1-5.0 mg/kg IP)"}},
  "note": "Like-named read-outs stand apart in the source and are kept apart here.",
  "data": [
    {"molecule": "COc1ccc2c3c1O[C@H]1C[C@@H](O)C=C[C@@]31CCN(C)C2", "note": "[Galanthamine HBr, reference compound]", "values": [
      {"measurement": "NADPH-dependent CLint (microsomal intrinsic clearance)", "setting": "[1]; 5.0 μM, Mouse", "value": 0.0, "unit": "μl min^−1 mg−^1"},
      {"measurement": "NADPH-free CLint (microsomal intrinsic clearance)", "setting": "[1]; 5.0 μM, Mouse", "value": 0.0, "unit": "μl min^−1 mg−^1"},
      {"measurement": "half-life at 5 μM", "setting": "[1]; [11]", "value": "> 1", "unit": "h"},
      {"measurement": "half-life at 5 μM", "setting": "[1]; [12]", "value": "> 1", "unit": "h"}
    ]},
    {"molecule": "CCCCNC(=O)O[C@H]1C=C[C@@]23CCN(C)Cc4ccc(OC)c(c42)O[C@H]3C1", "note": "[Galantamine n-butylcarbamate, n-butylcarbamate derivative of galantamine]", "values": [
      {"measurement": "cholinesterase inhibitory potency relative to galantamine", "setting": "cholinesterase [2]", "value": "about 36%"},
      {"measurement": "NADPH-dependent CLint (microsomal intrinsic clearance)", "setting": "[1]; 5.0 μM, Mouse", "value": 23.5, "unit": "μl min^−1 mg−^1"},
      {"measurement": "NADPH-free CLint (microsomal intrinsic clearance)", "setting": "[1]; 5.0 μM, Mouse", "value": 0.0, "unit": "μl min^−1 mg−^1"},
      {"measurement": "half-life at 5 μM", "setting": "[1]; [11]", "value": 1.64, "unit": "h"},
      {"measurement": "half-life at 5 μM", "setting": "[1]; [12]", "value": "> 1", "unit": "h"},
      {"measurement": "half-life at 5 μM", "setting": "[1]; in-vitro preparation of liver microsomes, read-out: half-life in liver microsomes", "value": "> 1", "unit": "h"},
      {"measurement": "tolerability", "setting": "Mecp2 mice [3]; Mecp2 mice of both sexes and controls, locomotor and respiratory functions", "value": "safe and well tolerated"},
      {"measurement": "effect on locomotor activity", "setting": "Mecp2 mice [3]; IP or gavage, Mecp2 mice of either sex", "value": "did not impair locomotor activity"},
      {"measurement": "adverse effects at very high doses", "setting": "mice; listed as n-butylcarbamate", "value": "wobbly and off-balance with rapid heart rate still present at 4 hours, but were recovered at 24 hours"},
      {"measurement": "adverse effects at very high doses", "setting": "mice", "value": "affects cardiac and motor functions at very high doses"},
      {"measurement": "lethality (dose without lethality)", "setting": "mice", "value": "> 100", "unit": "mg/kg"},
      {"measurement": "effect of FK-1 antibody on the enhancement", "setting": "α7 nicotinic receptors; antibody to the galantamine recognition site on nicotinic receptors", "value": "blocked by the antibody to the galantamine recognition site on nicotinic receptors, FK-1"},
      {"measurement": "stability in mouse plasma", "setting": "[4]", "value": "stable for greater than two hours"},
      {"measurement": "concentration at two hours compared with galantamine", "setting": "[4]; two hours", "value": "slightly lower than those of galantamine"},
      {"measurement": "increase of time remaining in the lighted compartment versus saline", "setting": "[5]", "value": "about 100 seconds"},
      {"measurement": "best dose for memory enhancement", "setting": "[5]", "value": 0.5, "unit": "mg/kg"},
      {"measurement": "NOR task learning versus vehicle", "setting": "female Mecp2 mice; Chi square p=0.0321", "value": "learned the NOR task significantly better than vehicle-injected Mecp2 mice"},
      {"measurement": "share of mice with NOR scores = or below 0.5", "setting": "female Mecp2 mice; [13]", "value": 65, "unit": "%"},
      {"measurement": "share of mice with NOR scores above 0.5", "setting": "female Mecp2 mice; [13]", "value": 35, "unit": "%"},
      {"measurement": "predicted oral bioavailability", "setting": "CaCo-2 cells", "value": 80, "unit": "%"},
      {"measurement": "IC50", "setting": "cholinesterase [6]", "value": 1090, "unit": "nM"},
      {"measurement": "effect on respiratory activity", "setting": "Mecp2 mice [7]", "value": "did not affect respiratory activity"}
    ]},
    {"molecule": "COc1ccc2c3c1O[C@H]1C[C@@H](O)C=C[C@@]31CCN(C)C2", "note": "[Galantamine]", "values": [
      {"measurement": "plasma half-life", "setting": "[8]", "value": "about 7 hours"},
      {"measurement": "enhancement of the depolarization caused by choline", "setting": "α7 nicotinic receptors; 1 μM compound, 1.5 mM choline, primary cultured rat neurons", "value": "20.6±4.2", "unit": "%"},
      {"measurement": "increase of time remaining in the lighted compartment versus saline", "setting": "[5]", "value": "about 125 seconds"},
      {"measurement": "best dose for memory enhancement", "setting": "[5]", "value": 3, "unit": "mg/kg"},
      {"measurement": "mortality in mild cognitive impairment", "setting": "[9]", "value": "increased mortality"},
      {"measurement": "episodes of rage", "setting": "[10]", "value": "striking decrease in episodes of rage"},
      {"measurement": "clinical outcome in ASD", "setting": "ASD patients", "value": "some beneficial results"}
    ]}
  ]
}
